“And” between values parts separate entries of the source, which are not always exact repeats. Identical values can stand only once. Inconclusive results and toxic doses are left out. How the source made its calls: active means survival T/C of 150% or more; inactive means T/C below 125% in these data.
Test system: CD2F1 mice, L1210 leukemia ip, survival T/C
Test: NCI In Vivo Anticancer Drug Screen. Data for tumor model L1210 Leukemia (intraperitoneal) in CD2F1 (CDF1) mice
Settings: higher = longer survival
Outline: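 Implant tumor; dose compound or vehicle; measure endpoint in both groups; report treated divided by control.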

[1] = endpoint: mean survival time, dose: 100.0 mg/kg/injection, schedule: Q01DX009 (ip), vehicle: saline with Tween-80
[2] = endpoint: mean survival time, dose: 100.0 mg/kg/injection, schedule: Q04DX003 (ip), vehicle: saline with Tween-80
[3] = endpoint: mean survival time, dose: 200.0 mg/kg/injection, schedule: Q01DX009 (ip), vehicle: saline with Tween-80
[4] = endpoint: mean survival time, dose: 200.0 mg/kg/injection, schedule: Q04DX003 (ip), vehicle: saline with Tween-80
[5] = endpoint: mean survival time, dose: 400.0 mg/kg/injection, schedule: Q04DX003 (ip), vehicle: saline with Tween-80
[6] = endpoint: mean survival time, dose: 400.0 mg/kg/injection, schedule: Q01DX009 (ip), vehicle: saline with Tween-80
[7] = endpoint: mean survival time, dose: 200.0 mg/kg/injection, schedule: Q01DX001 (ip), vehicle: saline
[8] = endpoint: mean survival time, dose: 100.0 mg/kg/injection, schedule: Q01DX001 (ip), vehicle: saline with Tween-80
[9] = endpoint: mean survival time, dose: 200.0 mg/kg/injection, schedule: Q01DX001 (ip), vehicle: saline with Tween-80
[10] = endpoint: mean survival time, dose: 400.0 mg/kg/injection, schedule: Q01DX001 (ip), vehicle: saline with Tween-80
[11] = endpoint: mean survival time, dose: 100.0 mg/kg/injection, schedule: Q04DX002 (ip), vehicle: saline with Tween-80
[12] = endpoint: mean survival time, dose: 200.0 mg/kg/injection, schedule: Q04DX002 (ip), vehicle: saline with Tween-80
[13] = endpoint: mean survival time, dose: 400.0 mg/kg/injection, schedule: Q04DX002 (ip), vehicle: saline with Tween-80

Measured: T/C

Nc1ncnc2c1c1c(=O)[nH]cnc1n2C1OC(CO)C(O)C1O (stereo not given)
inactive: endpoint: mean survival time, dose: 6.25 mg/kg/injection, schedule: Q01DX005 (ip), vehicle: Klucel (hydroxypropylcellulose) (HPC) 98 % of control | endpoint: mean survival time, dose: 12.5 mg/kg/injection, schedule: Q01DX005 (ip), vehicle: Klucel (hydroxypropylcellulose) (HPC) 104 % of control | endpoint: mean survival time, dose: 25.0 mg/kg/injection, schedule: Q01DX005 (ip), vehicle: Klucel (hydroxypropylcellulose) (HPC) 108 % of control | endpoint: mean survival time, dose: 50.0 mg/kg/injection, schedule: Q01DX005 (ip), vehicle: Klucel (hydroxypropylcellulose) (HPC) 115 % of control | endpoint: mean survival time, dose: 100.0 mg/kg/injection, schedule: Q01DX005 (ip), vehicle: Klucel (hydroxypropylcellulose) (HPC) 120 % of control

COCC1C(N)C(C)NC(Cl)C1C#N (stereo not given)
inactive: [1] 97 % of control | [2] 95 % of control | [3] 97 % of control | [4] 100 % of control | [5] 100 % of control

CC(C)NCc1ccc2c(c1)OCO2
inactive: endpoint: mean survival time, dose: 75.0 mg/kg/injection, schedule: Q01DX001 (ip), vehicle: saline 98 % of control | endpoint: mean survival time, dose: 150.0 mg/kg/injection, schedule: Q01DX001 (ip), vehicle: saline 101 % of control

O=C1c2ccccc2C(=O)N1c1c2ccccc2cc2ccccc12
inactive: [1] 95 % of control | [3] 101 % of control | [6] 90 % of control

Cc1nc(C)c(Cc2ccccc2O)c(=O)[nH]1
inactive: [7] 103 % of control

COC(=O)CCS/C=C/C(=O)O
inactive: [8] 97 % of control | [9] 100 % of control | [10] 97 % of control

CC(C(=O)c1ccccc1)C(c1ccccc1)N1CCCCC1 (stereo not given)
inactive: [8] 92 % of control | [1] 87 % of control | [3] 96 % of control | [10] 90 % of control | [6] 93 % of control

CCCCCCCCCCOC(=O)COc1ccc(C(C)(C)C)cc1
inactive: endpoint: mean survival time, dose: 12.5 mg/kg/injection, schedule: Q01DX009 (ip), vehicle: saline with Tween-80 106 % of control | endpoint: mean survival time, dose: 25.0 mg/kg/injection, schedule: Q01DX009 (ip), vehicle: saline with Tween-80 97 % of control | endpoint: mean survival time, dose: 50.0 mg/kg/injection, schedule: Q01DX009 (ip), vehicle: saline with Tween-80 97 % of control

N#CC(C#N)=c1ccc(=C(C#N)C#N)cc1
inactive: [2] 98 % of control

CC(=O)OCc1ccc2ccccc2c1
inactive: [1] 100 % of control | [3] 102 % of control | [6] 118 % of control

OCC(O)C(O)C(O)c1csc(=S)[nH]1 (stereo not given)
inactive: [8] 97 % of control | [9] 103 % of control | [10] 100 % of control

CCCCCCCN(CCCCCCC)CC(OC(C)=O)c1cc2ccccc2c2cc(Br)ccc12 (stereo not given)
inactive: [2] 98 % of control | [4] 101 % of control | [5] 104 % of control

CCOC(=O)C(C)C(=O)C(C)N1C(=O)c2ccccc2C1=O (stereo not given)
inactive: endpoint: mean survival time, dose: 12.5 mg/kg/injection, schedule: Q01DX009 (ip), vehicle: water 95 % of control | endpoint: mean survival time, dose: 25.0 mg/kg/injection, schedule: Q01DX009 (ip), vehicle: water 95 % of control | endpoint: mean survival time, dose: 50.0 mg/kg/injection, schedule: Q01DX009 (ip), vehicle: water 95 % of control | endpoint: mean survival time, dose: 100.0 mg/kg/injection, schedule: Q01DX009 (ip), vehicle: water 100 % of control | endpoint: mean survival time, dose: 200.0 mg/kg/injection, schedule: Q01DX009 (ip), vehicle: water 96 % of control

C(#Cc1ccccc1)c1ccccc1.Cc1ccc([PH+](c2ccccc2)c2ccccc2)cc1.Cc1ccc([PH+](c2ccccc2)c2ccccc2)cc1.[Pt]
inactive: endpoint: median survival time, dose: 3.13 mg/kg/injection, schedule: Q04DX003 (ip), vehicle: distilled water + Tween-80 100 % of control | endpoint: median survival time, dose: 6.25 mg/kg/injection, schedule: Q04DX003 (ip), vehicle: distilled water + Tween-80 101 % of control | endpoint: median survival time, dose: 12.5 mg/kg/injection, schedule: Q04DX003 (ip), vehicle: distilled water + Tween-80 105 % of control | endpoint: median survival time, dose: 25.0 mg/kg/injection, schedule: Q04DX003 (ip), vehicle: distilled water + Tween-80 89 % of control | endpoint: median survival time, dose: 50.0 mg/kg/injection, schedule: Q04DX003 (ip), vehicle: distilled water + Tween-80 90 % of control | endpoint: median survival time, dose: 100.0 mg/kg/injection, schedule: Q04DX003 (ip), vehicle: distilled water + Tween-80 94 % of control

CC(NC(=O)c1cccnc1)C(=O)O (stereo not given)
inactive: endpoint: median survival time, dose: 25.0 mg/kg/injection, schedule: Q04DX003 (ip), vehicle: saline 105 % of control | endpoint: median survival time, dose: 50.0 mg/kg/injection, schedule: Q04DX003 (ip), vehicle: saline 115 % of control | endpoint: median survival time, dose: 100.0 mg/kg/injection, schedule: Q04DX003 (ip), vehicle: saline 94 % of control | endpoint: median survival time, dose: 200.0 mg/kg/injection, schedule: Q04DX003 (ip), vehicle: saline 94 % of control

CCCCCCCCCCC(N)P(=O)(O)O (stereo not given)
inactive: endpoint: mean survival time, dose: 25.0 mg/kg/injection, schedule: Q04DX003 (ip), vehicle: saline with Tween-80 91 % of control | endpoint: mean survival time, dose: 50.0 mg/kg/injection, schedule: Q04DX003 (ip), vehicle: saline with Tween-80 91 % of control

CC(C)(C)c1cccc(C(C)(C)C)c1OC(=O)NS(=O)(=O)c1ccccc1
inactive: endpoint: mean survival time, dose: 12.5 mg/kg/injection, schedule: Q04DX003 (ip), vehicle: acetone 101 % of control | endpoint: mean survival time, dose: 25.0 mg/kg/injection, schedule: Q04DX003 (ip), vehicle: acetone 101 % of control | endpoint: mean survival time, dose: 50.0 mg/kg/injection, schedule: Q04DX003 (ip), vehicle: acetone 113 % of control

COc1cc2c(c3ccccc13)CCCC2=O
inactive: [1] 95 % of control | [3] 92 % of control | [6] 97 % of control

Cc1c2c(c(C)c3c(C)nccc13)Cc1ccccc1-2
inactive: [11] 92 % of control | [12] 92 % of control | [13] 88 % of control

CCNC(=O)OCCc1c2ccccc2nc2ccccc12
inactive: endpoint: mean survival time, dose: 100.0 mg/kg/injection, schedule: Q04DX002 (ip), vehicle: other 105 % of control and 102 % of control | endpoint: mean survival time, dose: 200.0 mg/kg/injection, schedule: Q04DX002 (ip), vehicle: other 97 % of control and 90 % of control | endpoint: mean survival time, dose: 400.0 mg/kg/injection, schedule: Q04DX002 (ip), vehicle: other 94 % of control and 97 % of control

CC1(C)CC(=O)C2(C)C(C1O)C2C1C2C(O)C(C)(C)CC(=O)C21C (stereo not given)
inactive: endpoint: mean survival time, dose: 75.0 mg/kg/injection, schedule: Q01DX001 (ip), vehicle: other 96 % of control | endpoint: mean survival time, dose: 150.0 mg/kg/injection, schedule: Q01DX001 (ip), vehicle: other 94 % of control | endpoint: mean survival time, dose: 300.0 mg/kg/injection, schedule: Q01DX001 (ip), vehicle: other 91 % of control

O=c1ccnc2cc[nH]n12
inactive: endpoint: median survival time, dose: 50.0 mg/kg/injection, schedule: Q01DX005 (ip), vehicle: saline 104 % of control | endpoint: median survival time, dose: 100.0 mg/kg/injection, schedule: Q01DX005 (ip), vehicle: saline 101 % of control | endpoint: median survival time, dose: 200.0 mg/kg/injection, schedule: Q01DX005 (ip), vehicle: saline 101 % of control

COc1ccc(/C=C(\C#N)C(=O)NCCc2ccc(OC)c(OC)c2)cc1OC
inactive: [11] 95 % of control | [12] 95 % of control | [13] 95 % of control

C=C1CCCCCCCCCCC1O (stereo not given)
inactive: [2] 91 % of control | [4] 95 % of control | [5] 91 % of control

CC(=O)OCC1CCCN1C(C)=O (stereo not given)
inactive: endpoint: mean survival time, dose: 100.0 mg/kg/injection, schedule: Q01DX001 (ip), vehicle: saline 97 % of control | [7] 97 % of control | endpoint: mean survival time, dose: 400.0 mg/kg/injection, schedule: Q01DX001 (ip), vehicle: saline 97 % of control

O=C(C/C(=N\C(=S)Nc1cc(C(F)(F)F)ccc1Cl)NO)N1CCCC1
inactive: endpoint: median survival time, dose: 12.5 mg/kg/injection, schedule: Q01DX009 (ip), vehicle: saline with Tween-80 101 % of control | endpoint: median survival time, dose: 25.0 mg/kg/injection, schedule: Q01DX009 (ip), vehicle: saline with Tween-80 97 % of control and 105 % of control | endpoint: median survival time, dose: 50.0 mg/kg/injection, schedule: Q01DX009 (ip), vehicle: saline with Tween-80 102 % of control (2×) and 106 % of control | endpoint: median survival time, dose: 100.0 mg/kg/injection, schedule: Q01DX009 (ip), vehicle: saline with Tween-80 108 % of control and 109 % of control | endpoint: median survival time, dose: 200.0 mg/kg/injection, schedule: Q01DX009 (ip), vehicle: saline with Tween-80 121 % of control and 122 % of control and 123 % of control | endpoint: median survival time, dose: 300.0 mg/kg/injection, schedule: Q01DX009 (ip), vehicle: saline with Tween-80 86 % of control

COc1ccc2c(c1)N(CC(C)C[N+](C)(C)CCCCCCCCCC[N+](C)(C)CC(C)CN1c3ccccc3Sc3ccc(OC)cc31)c1ccccc1S2 (stereo not given)
inactive: endpoint: mean survival time, dose: 6.25 mg/kg/injection, schedule: Q01DX009 (ip), vehicle: saline 100 % of control | endpoint: mean survival time, dose: 12.5 mg/kg/injection, schedule: Q01DX009 (ip), vehicle: saline 92 % of control | endpoint: mean survival time, dose: 25.0 mg/kg/injection, schedule: Q01DX009 (ip), vehicle: saline 106 % of control

Reference: PubChem BioAssay AID256 (DTP/NCI, 2004)
